# From US8513232B2, “Substituted spirocyclic piperidine derivatives as histamine-3 (H3) receptor ligands” (Cephalon, Inc., priority 2008, dated 2013)
# Tests used:
# human H3 receptor = target: T1, human H3 receptor (Homo sapiens, UniProt Q9Y5N1); test: Human H3 radioligand binding ([3H]-N-alpha-methylhistamine, SPA); conditions: Human H3 binding, Table B, Examples 136-362; read-out: hum H3 binding Ki
# T1 construct: expressed in transfected cells
# Outline: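 Compounds (0.01 nM-30 μM) competed with approximately 1 nM [3H]-N-alpha-methylhistamine for human H3 receptor in membranes of stably transfected CHO cells, 10 μg protein per well, in Tris-HCl pH 7.4/MgCl2/BSA buffer for 4 h at room temperature. Bound radioligand measured by scintillation proximity; 10 μM clobenpropit gave non-specific binding.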
# [1] = target: T2, rat histamine H3 receptor (Rattus norvegicus, UniProt Q9QYN8); test: Rat H3 radioligand binding ([3H]-N-alpha-methylhistamine, SPA); conditions: Rat H3 binding, Table B, Examples 136-362; read-out: rat H3 binding Ki
# T2 construct: encoding the entire 445-amino-acid rat histamine H3 receptor; expressed in transfected cells; membrane preparation
# Outline: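 SPA-bead binding assay using [3H]-N-alpha-methylhistamine (approximately 1 nM final) with test compounds from 0.01 nM to 30 μM. Rat H3 receptor membranes came from stably transfected CHO-A3 cells; incubation ran 4 h at room temperature, in the dark, in Tris pH 7.4 buffer with MgCl2 and BSA. Clobenpropit (10 μM) gave non-specific binding.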
# T2 sequence (Q9QYN8 whole entry): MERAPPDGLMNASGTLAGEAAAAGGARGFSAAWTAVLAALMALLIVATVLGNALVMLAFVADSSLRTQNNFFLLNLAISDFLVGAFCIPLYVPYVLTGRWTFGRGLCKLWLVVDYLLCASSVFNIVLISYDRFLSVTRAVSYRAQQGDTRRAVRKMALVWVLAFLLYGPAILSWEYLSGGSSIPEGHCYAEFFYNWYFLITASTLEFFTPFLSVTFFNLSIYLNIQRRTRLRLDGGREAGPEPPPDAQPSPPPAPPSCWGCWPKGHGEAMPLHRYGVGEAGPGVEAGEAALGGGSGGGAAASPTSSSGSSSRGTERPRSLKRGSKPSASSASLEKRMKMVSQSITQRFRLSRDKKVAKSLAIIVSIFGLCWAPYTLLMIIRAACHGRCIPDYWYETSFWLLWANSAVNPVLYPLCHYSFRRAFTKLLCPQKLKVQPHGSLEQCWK
# T1 sequence (Q9Y5N1 whole entry): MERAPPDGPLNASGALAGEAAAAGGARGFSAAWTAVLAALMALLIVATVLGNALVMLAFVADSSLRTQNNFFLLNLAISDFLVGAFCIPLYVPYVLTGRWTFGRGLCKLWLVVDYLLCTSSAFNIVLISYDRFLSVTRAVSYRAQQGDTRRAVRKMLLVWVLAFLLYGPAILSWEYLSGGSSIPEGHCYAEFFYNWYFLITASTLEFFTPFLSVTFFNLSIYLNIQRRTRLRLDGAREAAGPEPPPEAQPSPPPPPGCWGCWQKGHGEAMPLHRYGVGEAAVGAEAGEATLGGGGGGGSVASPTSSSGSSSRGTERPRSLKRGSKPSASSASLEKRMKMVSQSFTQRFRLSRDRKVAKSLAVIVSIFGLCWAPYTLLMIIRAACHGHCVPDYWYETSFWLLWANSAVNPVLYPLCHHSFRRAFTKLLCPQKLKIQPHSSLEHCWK
SMILES,melting point,Ki (human H3 receptor),Ki [1]
O=S(=O)(N1CCN(c2ccc3c(c2)COC2(CCN(C4CCC4)CC2)O3)CC1)C(F)(F)F [Example 299],154.6 to 156.4 °C,< 200 nM,< 200 nM
CC(C)NC(=O)c1ccc(-c2ccc3c(c2)COC2(CCN(C4CCC4)CC2)O3)cc1 [Example 301],221 to 222 °C,< 200 nM,< 200 nM
CC(C)NC(=O)c1ccc(-c2ccc3c(c2)CCC2(CCN(C4CCC4)CC2)O3)cc1 [Example 302],191 to 192 °C,< 200 nM,< 200 nM
COCCN(C)C(=O)c1ccc(-c2ccc3c(c2)CCC2(CCN(C4CCC4)CC2)O3)cc1 [Example 303],225 to 227 °C,< 200 nM,< 200 nM
O=C(Nc1ccc2c(c1)COC1(CCN(C3CCC3)CC1)O2)c1cnccn1 [Example 304],173 to 175 °C,< 200 nM,< 200 nM
c1ccc(CNc2ccc3c(c2)COC2(CCN(C4CCC4)CC2)O3)cc1 [Example 305],85 to 87 °C,< 200 nM,< 200 nM
COCCN(C)C(=O)c1ccc(-c2ccc3c(c2)COC2(CCN(C4CCC4)CC2)O3)cc1 [Example 306],232 to 234 °C,< 200 nM,< 200 nM
O=C(N1CCCC1)N1CCN(c2ccc3c(c2)COC2(CCN(C4CCC4)CC2)O3)CC1 [Example 307],132 to 135 °C,< 200 nM,< 200 nM
Cc1nc(C)c(C(=O)Nc2ccc3c(c2)COC2(CCN(C4CCC4)CC2)O3)s1 [Example 308],174 to 175 °C,< 200 nM,< 200 nM
O=C(Nc1ccc2c(c1)COC1(CCN(C3CCC3)CC1)O2)c1ccnc(N2CCCC2)c1 [Example 309],234 to 236 °C,< 200 nM,< 200 nM
O=C(N1CCOCC1)N1CCN(c2ccc3c(c2)COC2(CCN(C4CCC4)CC2)O3)CC1 [Example 310],174 to 176 °C,< 200 nM,< 200 nM
CC(C)OCCNC(=O)c1ccc(-c2ccc3c(c2)COC2(CCN(C4CCC4)CC2)O3)cc1 [Example 311],155.5 to 157.3 °C,< 200 nM,< 200 nM
CC(C)OCCNC(=O)c1ccc(-c2ccc3c(c2)CCC2(CCN(C4CCC4)CC2)O3)cc1 [Example 312],135 to 137 °C,< 200 nM,< 200 nM
O=C(Nc1ccc2c(c1)COC1(CCN(C3CCC3)CC1)O2)c1ccnc(N2CCOCC2)c1 [Example 313],205 to 207 °C,< 200 nM,< 200 nM
CN(C)c1cc(C(=O)Nc2ccc3c(c2)COC2(CCN(C4CCC4)CC2)O3)ccn1 [Example 314],213 to 215 °C,< 200 nM,< 200 nM
Cc1cc(C(=O)Nc2ccc3c(c2)COC2(CCN(C4CCC4)CC2)O3)ccn1 [Example 315],184 to 185 °C,< 200 nM,< 200 nM

SMILES,melting point,Ki (human H3 receptor),Ki [1]
O=C(Nc1ccc2c(c1)COC1(CCN(C3CCC3)CC1)O2)c1ccc2ncsc2c1 [Example 316],232 to 234 °C,< 200 nM,< 200 nM
O=C(NC1CCN(c2ccc3c(c2)COC2(CCN(C4CCC4)CC2)O3)CC1)N1CCCC1 [Example 319],210.2 to 212.6 °C,< 200 nM,< 200 nM
CC(=O)N(Cc1cccnc1)c1ccc2c(c1)COC1(CCN(C3CCC3)CC1)O2 [Example 320],57 to 59 °C,< 200 nM,< 200 nM
c1cncc(CNc2ccc3c(c2)COC2(CCN(C4CCC4)CC2)O3)c1 [Example 321],117 to 118 °C,< 200 nM,< 200 nM
O=C(Cc1ccccn1)Nc1ccc2c(c1)COC1(CCN(C3CCC3)CC1)O2 [Example 322],166 to 168 °C,< 200 nM,< 200 nM
CNc1cc(C(=O)Nc2ccc3c(c2)COC2(CCN(C4CCC4)CC2)O3)ccn1 [Example 323],207 to 208 °C,< 200 nM,< 200 nM
CC(C)C(=O)NC1CCN(c2ccc3c(c2)COC2(CCN(C4CCC4)CC2)O3)CC1 [Example 324],208.4 to 210.6 °C,< 200 nM,< 200 nM
c1ncc(COc2ccc3c(c2)CCC2(CCN(C4CCC4)CC2)O3)o1 [Example 325],45 to 47 °C,< 200 nM,< 200 nM
O=C(Nc1ccc2c(c1)COC1(CCN(C3CCC3)CC1)O2)c1ccc2[nH]cnc2c1 [Example 326],235 to 237 °C,< 200 nM,< 200 nM
CC(=O)NC1CCN(c2ccc3c(c2)COC2(CCN(C4CCC4)CC2)O3)CC1 [Example 328],190.8 to 192 °C,< 200 nM,< 200 nM
CN(C)C(=O)NC1CCN(c2ccc3c(c2)COC2(CCN(C4CCC4)CC2)O3)CC1 [Example 329],193 to 195.2 °C,< 200 nM,< 200 nM
COCCNC(=O)c1ccc(-c2ccc3c(c2)COC2(CCN(C4CCC4)CC2)O3)cc1Cl [Example 330],234 to 235 °C,< 200 nM,< 200 nM
O=C(Cc1ccncc1)Nc1ccc2c(c1)COC1(CCN(C3CCC3)CC1)O2 [Example 331],170 to 172 °C,< 200 nM,< 200 nM
COCCNC(=O)c1ccc(-c2ccc3c(c2)CCC2(CCN(C4CCC4)CC2)O3)cc1Cl [Example 332],231 to 232 °C,< 200 nM,< 200 nM
O=C(Cc1cccnc1)Nc1ccc2c(c1)COC1(CCN(C3CCC3)CC1)O2 [Example 333],167 to 169 °C,< 200 nM,< 200 nM
CS(=O)(=O)N1CCC(COc2ccc3c(c2)CCC2(CCN(C4CCC4)CC2)O3)CC1 [Example 335],159 to 161 °C,< 200 nM,< 200 nM

# The next lines start with the values.
melting point,Ki (human H3 receptor),Ki [1],SMILES
101 to 102 °C,< 200 nM,< 200 nM,c1cc(CNc2ccc3c(c2)COC2(CCN(C4CCC4)CC2)O3)cs1 [Example 336]
58 to 60 °C,< 200 nM,< 200 nM,COCCNC(=O)c1ccc(-c2ccc3c(c2)CCC2(CCN(C4CCC4)C2)O3)cc1F (stereo not drawn) [Example 337]
249 to 250 °C,< 200 nM,< 200 nM,O=C(Nc1ccc2c(c1)COC1(CCN(C3CCC3)CC1)O2)c1ccc2[nH]ncc2c1 [Example 338]
231 to 233 °C,< 200 nM,< 200 nM,CN(C)C(=O)N1CCN(c2ccc3c(c2)CCC2(CCN(C4CCC4)C2)O3)CC1 (stereo not drawn) [Example 339]
194 to 195 °C,< 200 nM,< 200 nM,O=C(N[C@@H]1CCOC1)c1ccc(-c2ccc3c(c2)CCC2(CCN(C4CCC4)CC2)O3)cc1 [Example 341]
77.9 to 80 °C,< 200 nM,< 200 nM,CC(=O)N[C@H]1CCN(c2ccc3c(c2)COC2(CCN(C4CCC4)CC2)O3)C1 [Example 342]
77.9 to 79.9 °C,< 200 nM,< 200 nM,CC(=O)N[C@@H]1CCN(c2ccc3c(c2)COC2(CCN(C4CCC4)CC2)O3)C1 [Example 343]
112 to 113 °C,< 200 nM,< 200 nM,c1csc(CNc2ccc3c(c2)COC2(CCN(C4CCC4)CC2)O3)c1 [Example 344]
254 to 255 °C,< 200 nM,< 200 nM,O=C(Nc1ccc2c(c1)COC1(CCN(C3CCC3)CC1)O2)c1ccc2nccn2c1 [Example 345]
198 to 199 °C,< 200 nM,< 200 nM,O=C(N[C@@H]1CCOC1)c1ccc(-c2ccc3c(c2)COC2(CCN(C4CCC4)CC2)O3)cc1 [Example 346]
70.2 to 72.2 °C,< 200 nM,< 200 nM,O[C@@H]1CCN(c2ccc3c(c2)COC2(CCN(C4CCC4)CC2)O3)C1 [Example 347]
119 to 120 °C,< 200 nM,< 200 nM,CC(=O)N(Cc1cccs1)c1ccc2c(c1)COC1(CCN(C3CCC3)CC1)O2 [Example 348]
228 to 229 °C,< 200 nM,< 200 nM,O=C(Nc1ccc2c(c1)COC1(CCN(C3CCC3)CC1)O2)C1CCOCC1 [Example 349]
160 to 162 °C,200 to 1000 nM,200 to 1000 nM,Nc1ccc2c(c1)COC1(CCN(C3CCC3)CC1)O2 [Example 350]
113 to 116.1 °C,< 200 nM,< 200 nM,CCN(CC)C(=O)N1CCN(c2ccc3c(c2)COC2(CCN(C4CCC4)CC2)O3)CC1 [Example 351]
101 to 102 °C,< 200 nM,< 200 nM,CC(=O)N(Cc1ccsc1)c1ccc2c(c1)COC1(CCN(C3CCC3)CC1)O2 [Example 352]
209 to 210 °C,< 200 nM,< 200 nM,Cc1cnccc1C(=O)Nc1ccc2c(c1)COC1(CCN(C3CCC3)CC1)O2 [Example 353]
72.6 to 74.9 °C,< 200 nM,< 200 nM,O[C@H]1CCN(c2ccc3c(c2)COC2(CCN(C4CCC4)CC2)O3)C1 [Example 354]
